Patent US12661342B2, “Heteroaryl compounds and therapeutic uses thereof in conditions associated with the alteration of the activity of beta-glucocerebrosidase” (GT GAIN THERAPEUTICS SA, priority 2019, dated 2026)

Molecular target: T1, β-glucocerebrosidase (Homo sapiens, UniProt P04062, L483P)
T1 construct: host or cells: human Gaucher disease patient fibroblasts GM08760A
T1 sequence (P04062 40-536 L483P): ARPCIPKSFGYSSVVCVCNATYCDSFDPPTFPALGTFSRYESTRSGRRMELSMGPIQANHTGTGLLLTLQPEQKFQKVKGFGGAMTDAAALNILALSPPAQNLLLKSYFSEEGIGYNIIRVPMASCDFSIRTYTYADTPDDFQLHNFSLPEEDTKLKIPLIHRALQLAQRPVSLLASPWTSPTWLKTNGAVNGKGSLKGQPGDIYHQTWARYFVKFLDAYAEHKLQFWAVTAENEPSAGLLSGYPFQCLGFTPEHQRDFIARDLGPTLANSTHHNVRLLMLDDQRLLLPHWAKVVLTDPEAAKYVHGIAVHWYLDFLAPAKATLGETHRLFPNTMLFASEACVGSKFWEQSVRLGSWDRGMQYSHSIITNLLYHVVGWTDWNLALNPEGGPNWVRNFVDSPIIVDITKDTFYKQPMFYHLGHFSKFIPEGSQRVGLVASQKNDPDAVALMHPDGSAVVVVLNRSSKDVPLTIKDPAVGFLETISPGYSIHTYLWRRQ
Experiment: Enhancement of β-glucocerebrosidase activity measured in Gaucher disease fibroblasts (4-MU-β-D-glucopyranoside substrate, intact cells)
Type: cell-based
Parameters: key: Increase in comparison with non-treated of >2.0 fold is shown as A; Increase in comparison with non-treated of >1.7-2.0 fold is shown as B; Increase in comparison with non-treated of 1.2-1.7 fold is shown as C; D means that no increase compared with non-treated cells was detected in this method
Conditions: GBA fibroblasts bearing L444P (GM08760A, homozygous p.L444P); compound at concentrations between 6 and 50 μM; 4 days incubation
Summary of the method: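 Patient fibroblasts homozygous for p.L444P (GM08760A), grown in DMEM/10% FBS and exposed to compound for 4 days. Intact cells then given 4-MU-β-D-glucopyranoside in 0.1 M acetate pH 4, 1 h, 37 °C; stopped at pH 10.7, 4-MU fluorescence ex 340/em 460. Value is fold increase over untreated cells; binned at 6–50 μM.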

| Compound | Range: increase in enzyme activity in comparison with non-treated cells (Enzyme activity assay for compounds of Examples 33-141) | Range: increase in enzyme activity in comparison with non-treated cells (Enzyme activity assay for exemplified compounds) |
| --- | --- | --- |
| Nc1cc(Nc2ccccc2F)nc(C(=O)Nc2ccc3c(c2)OCCO3)c1 [Example 111, 4-Amino-N-(2,3-dihydrobenzo[b][1,4]dioxin-6-yl)-6-((2-fluorophenyl)amino)picolinamide] | A (Increase in comparison with non-treated of >2.0 fold is shown as A) |  |
| COc1ccccc1Nc1cc(N)cc(C(=O)N2Cc3ccccc3C2)n1 [Example 96, (6-(2-Methoxyphenylamino)-4-aminopyridin-2-yl)(isoindolin-2-yl)methanone] | C (Increase in comparison with non-treated of 1.2-1.7 fold is shown as C) |  |
| CN(C(=O)c1cc(N)cc(Nc2ccccc2F)n1)c1ccccc1 [Example 114, 4-Amino-6-((2-fluorophenyl)amino)-N-methyl-N-phenylpicolinamide] | D |  |
| Cc1ccc(Nc2nc(N)cc(C(=O)N(C)Cc3ccccc3)n2)cc1 [Example 21, 6-Amino-N-benzyl-N-methyl-2-(p-tolylamino)pyrimidine-4-carboxamide] |  | C (Increase in comparison with non-treated of 1.2-1.7 fold is shown as C) |
| COc1ccccc1Nc1nc(N)nc2c1CCN(Cc1ccccc1)C2 [Example 24, 7-Benzyl-N4-(2-methoxyphenyl)-5,6,7,8-tetrahydropyrido[3,4-d]pyrimidine-2,4-diamine] |  | C (Increase in comparison with non-treated of 1.2-1.7 fold is shown as C) |
| Nc1nc(Nc2ccccc2O)cc(C(=O)NC2CCc3ccccc3C2)n1 (centres unmarked) [Example 84, 2-Amino-6-((2-hydroxyphenyl)amino)-N-(1,2,3,4-tetrahydronaphthalen-2-yl)pyrimidine-4-carboxamide] | C (Increase in comparison with non-treated of 1.2-1.7 fold is shown as C) |  |
| Nc1nc(Nc2ccccc2O)nc2c1CCN(Cc1ccccc1)C2 [Example 29, 2-((4-Amino-7-benzyl-5,6,7,8-tetrahydropyrido[3,4-d]pyrimidin-2-yl)amino)phenol] |  | B (Increase in comparison with non-treated of >1.7-2.0 fold is shown as B) |
| Nc1cc(Nc2cccc(F)c2)nc(C(=O)N2CCN(c3ccccc3)CC2)c1 [Example 105, (4-Amino-6-((3-fluorophenyl)amino)pyridin-2-yl)(4-phenylpiperazin-1-yl)methanone] | B (Increase in comparison with non-treated of >1.7-2.0 fold is shown as B) |  |
| Nc1cc(Nc2ccccn2)cc(C(=O)Nc2ccccc2)n1 [Example 79, 6-Amino-N-phenyl-4-(pyridin-2-ylamino)pyridine-2-carboxamide] | C (Increase in comparison with non-treated of 1.2-1.7 fold is shown as C) |  |
| Nc1cc(Nc2ccccc2O)nc(C(=O)NC2Cc3ccccc3C2)n1 [Example 56, 4-Amino-N-(2,3-dihydro-1H-inden-2-yl)-6-((2-hydroxyphenyl)amino)pyrimidine-2-carboxamide] | B (Increase in comparison with non-treated of >1.7-2.0 fold is shown as B) |  |
| Nc1cc(Nc2ccccc2O)cc(C(=O)N2CCN(c3ccccc3)CC2)n1 [Example 61, (6-Amino-4-((2-hydroxyphenyl)amino)pyridin-2-yl)(4-phenylpiperazin-1-yl)methanone] | C (Increase in comparison with non-treated of 1.2-1.7 fold is shown as C) |  |
| CN(C(=O)c1cc(N)cc(Nc2ccccc2O)n1)C1Cc2ccccc2C1.Cl [Example 131, 4-Amino-N-(2,3-dihydro-1H-inden-2-yl)-6-((2-hydroxyphenyl)amino)-N-methyl-picolinamide hydrochloride] | C (Increase in comparison with non-treated of 1.2-1.7 fold is shown as C) |  |
| Cc1ccc(Nc2nc(N)cc(C(=O)N(C)c3ccccc3)n2)cc1 [Example 6, 6-Amino-N-methyl-N-phenyl-2-(p-tolylamino)pyrimidine-4-carboxamide] |  | D |
| Nc1nc(Nc2ccccc2O)cc(C(=O)NC2Cc3ccccc3C2)n1 [Example 81, 2-amino-N-(2,3-dihydro-1H-inden-2-yl)-6-((2-hydroxyphenyl)amino)pyrimidine-4-carboxamide] | B (Increase in comparison with non-treated of >1.7-2.0 fold is shown as B) |  |
| Nc1cc(Nc2cccnc2)nc(C(=O)NC2Cc3ccccc3C2)c1 [Example 102, 4-Amino-N-(2,3-dihydro-1H-inden-2-yl)-6-(pyridin-3-ylamino)picolinamide] | C (Increase in comparison with non-treated of 1.2-1.7 fold is shown as C) |  |
| CN(C(=O)c1cc(N)nc(Nc2ccccc2O)n1)c1ccccc1 [Example 5, 6-Amino-2-((2-hydroxyphenyl)amino)-N-methyl-N-phenylpyrimidine-4-carboxamide] |  | C (Increase in comparison with non-treated of 1.2-1.7 fold is shown as C) |
| Nc1cc(Nc2ccccc2F)cc(C(=O)NC2Cc3ccccc3C2)n1 [Example 70, 6-Amino-N-(2,3-dihydro-1H-inden-2-yl)-4-((2-fluorophenyl)amino)picolinamide] | D |  |
| COc1ccc(Nc2nc(N)c3c(n2)CN(Cc2ccccc2)CC3)cc1 [Example 30, 7-Benzyl-N2-(4-methoxyphenyl)-5,6,7,8-tetrahydropyrido[3,4-d]pyrimidine-2,4-diamine] |  | C (Increase in comparison with non-treated of 1.2-1.7 fold is shown as C) |
| COc1ccccc1Nc1cc(N)cc(C(=O)NC2Cc3ccccc3C2)n1.Cl [Example 133, 4-amino-N-(2,3-dihydro-1H-inden-2-yl)-6-((2-methoxyphenyl)amino)picolinamide hydrochloride] | C (Increase in comparison with non-treated of 1.2-1.7 fold is shown as C) |  |
| Nc1cc(Nc2ccccc2Cl)cc(C(=O)NC2Cc3ccccc3C2)n1 [Example 72, 6-Amino-4-((2-chlorophenyl)amino)-N-(2,3-dihydro-1H-inden-2-yl)picolinamide] | D |  |
| Nc1cc(Nc2ccccc2O)nc(C(=O)N2CCN(c3ccccc3)CC2)c1 [Example 88, (4-Amino-6-((2-hydroxyphenyl)amino)pyridin-2-yl)(4-phenylpiperazin-1-yl)methanone] | C (Increase in comparison with non-treated of 1.2-1.7 fold is shown as C) |  |
| COc1ccccc1Nc1cc(N)nc(C(=O)N2CCN(c3ccccc3)CC2)c1 [Example 51, (6-Amino-4-((2-methoxyphenyl)amino)pyridin-2-yl)(4-phenylpiperazin-1-yl)methanone] | C (Increase in comparison with non-treated of 1.2-1.7 fold is shown as C) |  |
| Cl.Nc1cc(Nc2cc(F)cc(F)c2)nc(C(=O)NC2Cc3ccccc3C2)c1 [Example 140, 4-Amino-6-((3,5-difluorophenyl)amino)-N-(2,3-dihydro-1H-inden-2-yl)picolinamide hydrochloride] | A (Increase in comparison with non-treated of >2.0 fold is shown as A) |  |
| Nc1cc(C(=O)NC2CCc3ccccc3C2)nc(Nc2ccccc2O)n1 (centres unmarked) [Example 12, 6-Amino-2-((2-hydroxyphenyl)amino)-N-(1,2,3,4-tetrahydronaphthalen-2-yl)pyrimidine-4-carboxamide] |  | B (Increase in comparison with non-treated of >1.7-2.0 fold is shown as B) |
| Cc1cccc(Nc2cc(N)cc(C(=O)NC3Cc4ccccc4C3)n2)c1O [Example 91, 4-Amino-N-(2,3-dihydro-1H-inden-2-yl)-6-((2-hydroxy-3-methylphenyl)amino)picolinamide] | B (Increase in comparison with non-treated of >1.7-2.0 fold is shown as B) |  |
| Nc1cc(Nc2ccc(F)cc2)nc(C(=O)NC2Cc3ccccc3C2)c1 [Example 98, 4-Amino-N-(2,3-dihydro-1H-inden-2-yl)-6-((4-fluorophenyl)amino)picolinamide] | B (Increase in comparison with non-treated of >1.7-2.0 fold is shown as B) |  |
